Patent publication US6673794B2, “Substituted aminomethyl-phenyl-cyclohexane derivatives” (Gruenenthal GmbH, priority 2000, dated 2004)

These molecules were tested on Male NMRI mice (assay: phenylquinone-induced writhing test in mice). Settings: Mus musculus, iv, 10 mg/kg i.v., 10 minutes before phenylquinone i.p., writhing counted 5-20 minutes after phenylquinone, read-out: % inhibition of the writhing reactions (10 mg/kg i.v.).
Type: in vivo
Description: The antinociceptive activity of the compounds according to the invention was investigated in mice in the phenylquinone-induced writhing test, modified by I.C. Hendershot, J. Forsaith, J. Pharmacol. Exp. Ther. 125, 237-240 (1959). Male NMRI mice weighing 25-30 g were used. Groups of 10 animals per substance dose received 0.3 ml/mouse of a 0.02% aqueous solution of phenylquinone (phenylbenzoquinone, Sigma, Deisenhofen; preparation of the solution with the addition of 5% ethanol and storage in a water bath at 45° C.) administered intraperitoneally 10 minutes after intravenous administration of a compound according to the invention. The animals were placed individually in observation cages. The number of pain-induced stretching movements (so-called writhing reactions, that is straightening of the body with stretching of the hind extremities) was counted by means of a push-button counter for 5-20 minutes after the administration of phenylquinone. Animals which received physiological saline solution i.v. and phenylquinone […]. were also run as a control.
All substances were tested in the standard dose of 10 mg/kg. The percentage inhibition (% inhibition) of the writhing reactions by a substance was calculated according to the following equation:
% inhibition=100−(WRtreated animals/WRcontrol×100)
`COC(=O)c1cccc(C=C2CCC(CN(C)C)C(c3cccc(OC)c3)C2)c1` (racemic) [Compound 8, rac-trans-E-3-[4-dimethylaminomethyl-3-(3-methoxy-phenyl)-cyclohexylidenemethyl]-benzoic acid methyl ester] was tested, and the inhibition in vivo at 10 mg/kg was 98%. `COc1cccc([C@@H]2C/C(=C\c3cccc(C(=O)O)c3)CC[C@H]2CN(C)C)c1` (racemic) [Compound 17, rac-trans-Z-3-[4-Dimethylaminomethyl-3-(3-methoxy-phenyl)-cyclohexylidenemethyl]-benzoic acid] showed an inhibition in vivo at 10 mg/kg of 85%. In the case of `COc1cccc([C@@H]2C/C(=C/c3cccc(C(=O)O)c3)CC[C@H]2CN(C)C)c1` (racemic) [Compound 18, rac-trans-E-3-[4-Dimethylaminomethyl-3-(3-methoxy-phenyl)-cyclohexylidenemethyl]-benzoic acid], the inhibition in vivo at 10 mg/kg is reported as 100%. With `CN(C)C[C@@H]1CC/C(=C\c2cccc(CO)c2)C[C@H]1c1cccc(O)c1` (racemic) [Compound 19, rac-trans-E-3-[2-dimethylaminomethyl-5-(3-hydroxymethyl-benzylidene)-cyclohexyl]-phenol] the inhibition in vivo at 10 mg/kg was 82%. Work on `CN(C)C[C@@H]1CC/C(=C\c2ccccc2)C[C@H]1c1cccc(O)c1` (racemic) [Compound 20, rac-trans-E-3-(5-benzylidene-2-dimethylaminomethyl-cyclohexyl)-phenol] yielded an inhibition in vivo at 10 mg/kg of 84%. `CN(C)C[C@@H]1CC/C(=C/c2ccccc2)C[C@H]1c1cccc(O)c1` (racemic) [Compound 23, rac-trans-Z-3-(5-Benzylidene-2-dimethylaminomethyl-cyclohexyl)-phenol] gave an inhibition in vivo at 10 mg/kg of 88%. `CCOC(=O)c1cccc(/C=C2/CC[C@H](CN(C)C)[C@H](c3cccc(OC)c3)C2)c1` (racemic) [Compound 30, rac-cis-Z-3-[4-Dimethylaminomethyl-3-(3-methoxy-phenyl)-cyclohexylidenemethyl]-benzoic acid ethyl ester] showed an inhibition in vivo at 10 mg/kg of 84%. In the case of `CCN(CC)C(=O)c1cccc(/C=C2\CCC(CN(C)C)C(c3cccc(OC)c3)C2)c1` (racemic) [Compound 32], the inhibition in vivo at 10 mg/kg is reported as 100%. `CCN(CC)C(=O)c1cccc(/C=C2/CC[C@@H](CN(C)C)[C@H](c3cccc(OC)c3)C2)c1` (racemic) [Compound 36, rac-trans-Z-3-[4-Dimethylaminomethyl-3-(3-methoxy-phenyl)-cyclohexylidenemethyl]-N,N-diethyl-benzamide] showed an inhibition in vivo at 10 mg/kg of 100%. For `COc1cccc(C2=C/C(=C\c3cccc(C(=O)O)c3)CCC2CN(C)C)c1` (centres unmarked) [Compound 14, Z-3-[4-Dimethylaminomethyl-3-(3-methoxy-phenyl)-cyclohex-2-enylidenemethyl]-benzoic acid], the inhibition in vivo at 10 mg/kg was 94%. In the case of `COc1cccc(C2=C/C(=C/c3cccc(C(=O)O)c3)CCC2CN(C)C)c1` (centres unmarked) [Compound 15, E-3-[4-Dimethylaminomethyl-3-(3-methoxy-phenyl)-cyclohex-2-enylidenemethyl]-benzoic acid], the inhibition in vivo at 10 mg/kg is reported as 100%. With `COc1cccc(C2=C/C(=C/c3cccc(CO)c3)CCC2CN(C)C)c1` (centres unmarked) [Compound 16, E-{3-[4-dimethylaminomethyl-3-(3-methoxy-phenyl)-cyclohex-2-enylidenemethyl]-phenyl}-methanol] the inhibition in vivo at 10 mg/kg was 98%. Work on `COc1cccc(C2=C/C(=C/c3cccc(C(=O)OC(C)(C)C)c3)CCC2CN(C)C)c1` (centres unmarked) [Compound 21, E-3-[4-Dimethylaminomethyl-3-(3-methoxy-phenyl)-cyclohex-2-enylidenemethyl]-benzoic acid tert-butyl ester] yielded an inhibition in vivo at 10 mg/kg of 79%. Work on `CN(C)CC1CC/C(=C\c2cccc(CO)c2)C=C1c1cccc(O)c1` (centres unmarked) [Compound 22, E-3-[6-Dimethylaminomethyl-3-(3-hydroxymethyl-benzylidene)-cyclohex-1-enyl]-phenol] yielded an inhibition in vivo at 10 mg/kg of 93%. With `CN(C)CC1=C(c2cccc(O)c2)C/C(=C\c2cccc(CO)c2)CC1` [Compound 24, Z-3-[2-dimethylaminomethyl-5-(3-hydroxymethyl-benzylidene)-cyclohex-1-enyl]-phenol] the inhibition in vivo at 10 mg/kg was 100%. In the case of `COc1cccc(C2=C/C(=C\c3cccc(CO)c3)CCC2CN(C)C)c1` (centres unmarked) [Compound 25, Z-{3-[4-Dimethylaminomethyl-3-(3-methoxy-phenyl)-cyclohex-2-enylidenemethyl]-phenyl}-methanol], the inhibition in vivo at 10 mg/kg is reported as 100%. `CCOC(=O)c1cccc(/C=C2/C=C(c3cccc(OC)c3)C(CN(C)C)CC2)c1` (centres unmarked) [Compound 33, E-3-[4-Dimethylaminomethyl-3-(3-methoxy-phenyl)-cyclohex-2-enylidenemethyl]-benzoic acid ethyl ester] was tested, and the inhibition in vivo at 10 mg/kg was 90%. `CCN(CC)C(=O)c1cccc(/C=C2\C=C(c3cccc(OC)c3)C(CN(C)C)CC2)c1` (centres unmarked) [Compound 34, Z-3-[4-Dimethylaminomethyl-3-(3-methoxy-phenyl)-cyclohex-2-enylidenemethyl]-N,N-diethyl-benzamide] showed an inhibition in vivo at 10 mg/kg of 78%. `COC(=O)c1cccc(/C=C2/C=C(c3cccc(O)c3)C(CN(C)C)CC2)c1` (centres unmarked) [Compound 37, E-3-[4-dimethylaminomethyl-3-(3-hydroxy-phenyl)-cyclohex-2-enylidenemethyl]-benzoic acid methyl ester] showed an inhibition in vivo at 10 mg/kg of 91%. Molecule `COc1cccc(C2=C/C(=C\c3cccc(C(=O)OCC(C)C)c3)CCC2CN(C)C)c1` (centres unmarked) [Compound 39, Z-3-[4-Dimethylaminomethyl-3-(3-methoxy-phenyl)-cyclohex-2-enylidenemethyl]-benzoic acid isobutyl ester] has an inhibition in vivo at 10 mg/kg of 78%. `CN(C)CC1CC/C(=C/c2cccc(C(=O)O)c2)C=C1c1cccc(O)c1` (centres unmarked) [Compound 48, Z-3-[4-Dimethylaminomethyl-3-(3-hydroxy-phenyl)-cyclohex-2-enylidenemethyl]-benzoic acid] gave an inhibition in vivo at 10 mg/kg of 98%.

Same assay, conditions: mouse writhing test, 10 minutes before phenylquinone i.p., writhing counted 5-20 minutes after phenylquinone
For `COc1cccc([C@@H]2C/C(=C/c3cccc(C(=O)O)c3)CC[C@@H]2CN(C)C)c1.Cl` (racemic) [Compound 26, rac-cis-E-3-[4-Dimethylaminomethyl-3-(3-methoxy-phenyl)-cyclohexylidenemethyl]-benzoic acid], the “% inhibition of the writhing reactions (10 mg/kg i.v.)” value was 87%. For `CCN(CC)C(=O)c1cccc(/C=C2\CC[C@H](CN(C)C)[C@H](c3cccc(OC)c3)C2)c1.Cl` (racemic) [Compound 35, rac-cis-E-3-[4-Dimethylaminomethyl-3-(3-methoxy-phenyl)-cyclohexylidenemethyl]-N,N-diethyl-benzamide], the “% inhibition of the writhing reactions (10 mg/kg i.v.)” value was 100%.
